Measured values reported in ChEMBL document CHEMBL1201862, “PubChem BioAssay data set” (2004).
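Values below derive from 48-hour exposures of cells grown in 96-well plates, with endpoints linearly interpolated between the two concentrations bracketing the appropriate inhibition level. Abbreviation: GI50, concentration required for 50% inhibition of growth.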 The source made the active and inactive calls. Rule as the data show it: active = GI50 up to about 1.1 µM and inactive = higher.

Columns and labels:
Assay in all cases: DTP human tumour cell line panel, 48 h
SF-268 = system: SF-268
SNB-75 = system: SNB-75
M14 = system: M14
HCT-116 = system: HCT-116
IGROV-1 = system: IGROV-1
UACC-62 = system: UACC-62
DLD-1 = system: DLD-1
XF498 = system: XF498
A498 = system: A498
RXF 631 = system: RXF 631
HL-60 = system: HL-60
UO-31 = system: UO-31
SN12C = system: SN12C
ACHN = system: ACHN
Malme-3M = system: Malme-3M
COLO 205 = system: COLO 205
OVCAR-4 = system: OVCAR-4
K562 = system: K562
DMS-114 = system: DMS-114
HCC 2998 = system: HCC 2998
MOLT-4 = system: MOLT-4
SK-MEL-2 = system: SK-MEL-2
SK-MEL-28 = system: SK-MEL-28
NCI-H23 = system: NCI-H23
M19-MEL = system: M19-MEL
SK-OV-3 = system: SK-OV-3
HOP-92 = system: HOP-92
DMS-273 = system: DMS-273
LXFL 529 = system: LXFL 529
SR = system: SR
RPMI-8226 = system: RPMI-8226
NCI-H226 = system: NCI-H226
CAKI-1 = system: CAKI-1
SNB-78 = system: SNB-78
CCRF-CEM = system: CCRF-CEM
NCI-H522 = system: NCI-H522
SF-539 = system: SF-539
HOP-62 = system: HOP-62
786-0 = system: 786-0
NCI-H460 = system: NCI-H460
A549 = system: A549
HCT-15 = system: HCT-15
EKVX = system: EKVX
OVCAR-8 = system: OVCAR-8
OVCAR-3 = system: OVCAR-3
KM-20L2 = system: KM-20L2
SW-620 = system: SW-620
RXF 393 = system: RXF 393
LOX IMVI = system: LOX IMVI
U-251 = system: U-251
UACC-257 = system: UACC-257
KM12 = system: KM12
TK-10 = system: TK-10
HOP-18 = system: HOP-18
SF-295 = system: SF-295
OVCAR-5 = system: OVCAR-5
HT-29 = system: HT-29
SK-MEL-5 = system: SK-MEL-5
SNB-19 = system: SNB-19

Measured: GI50

Cc1cn(C2CC(N(C)C)C(CO)O2)c(=O)[nH]c1=O (centres undefined)
inactive: SF-268 > 100 µM | SNB-75 > 100 µM | M14 > 100 µM | HCT-116 > 100 µM | IGROV-1 > 100 µM | UACC-62 > 100 µM | DLD-1 > 100 µM | XF498 > 100 µM | A498 > 100 µM | RXF 631 > 100 µM | HL-60 > 100 µM | UO-31 > 100 µM | SN12C > 100 µM | ACHN > 100 µM | Malme-3M > 100 µM | COLO 205 > 100 µM | OVCAR-4 > 100 µM | K562 > 100 µM | DMS-114 > 100 µM | HCC 2998 > 100 µM | MOLT-4 > 100 µM | SK-MEL-2 > 100 µM | SK-MEL-28 > 100 µM | NCI-H23 > 100 µM | M19-MEL > 100 µM | SK-OV-3 > 100 µM | HOP-92 > 100 µM | DMS-273 > 100 µM | LXFL 529 > 100 µM | SR > 100 µM | RPMI-8226 > 100 µM | NCI-H226 > 100 µM | CAKI-1 > 100 µM | SNB-78 > 100 µM | CCRF-CEM > 100 µM | NCI-H522 > 100 µM | SF-539 > 100 µM | HOP-62 > 100 µM | 786-0 > 100 µM

COC(=O)C1=C(C(=O)OC)C2C=CC1C1C(Cl)=C(Cl)C21 (centres undefined)
inactive: NCI-H460 > 100 µM | SF-268 > 100 µM | SNB-75 > 100 µM | M14 > 100 µM | IGROV-1 > 100 µM | A549 > 100 µM | EKVX > 100 µM | UACC-62 > 100 µM | OVCAR-8 > 100 µM | DLD-1 > 100 µM | RXF 631 > 100 µM | OVCAR-3 > 100 µM | HL-60 > 10 µM | KM-20L2 > 100 µM | SW-620 > 100 µM | RXF 393 > 100 µM | UO-31 > 100 µM | SN12C > 100 µM | LOX IMVI > 100 µM | U-251 > 100 µM | ACHN > 100 µM | Malme-3M > 100 µM | UACC-257 > 100 µM | COLO 205 > 100 µM | OVCAR-4 > 100 µM | KM12 > 100 µM | K562 > 100 µM | TK-10 > 100 µM | DMS-114 > 100 µM | HCC 2998 > 100 µM | MOLT-4 > 100 µM | HOP-18 > 100 µM | SK-MEL-2 > 100 µM | SK-MEL-28 > 100 µM | NCI-H23 > 100 µM | M19-MEL > 100 µM | SK-OV-3 > 100 µM | HOP-92 40.1 µM | DMS-273 > 100 µM | LXFL 529 > 100 µM | RPMI-8226 > 100 µM | SF-295 > 100 µM | CAKI-1 > 100 µM | CCRF-CEM > 100 µM | OVCAR-5 > 100 µM | HT-29 > 100 µM | NCI-H522 > 100 µM | SF-539 > 100 µM | SK-MEL-5 88.7 µM | HOP-62 > 100 µM | 786-0 > 100 µM
> 100 µM: HCT-15

O=C(/C=C\c1cccc2ccccc12)c1ccc(Cl)cc1Cl
inactive: NCI-H460 23.4 µM | SF-268 19.6 µM | SNB-75 > 100 µM | M14 19.4 µM | HCT-116 18.7 µM | IGROV-1 39.7 µM | A549 62.1 µM | EKVX 36.5 µM | UACC-62 16.7 µM | OVCAR-8 18.7 µM | DLD-1 22 µM | A498 > 100 µM | RXF 631 23.8 µM | OVCAR-3 20.2 µM | HL-60 18.2 µM | KM-20L2 31 µM | SW-620 20 µM | UO-31 53 µM | SN12C > 100 µM | U-251 16.4 µM | ACHN 18.6 µM | Malme-3M 26.7 µM | UACC-257 27 µM | COLO 205 22.4 µM | OVCAR-4 43.6 µM | KM12 17.2 µM | K562 18.9 µM | TK-10 97.1 µM | DMS-114 14.8 µM | HCC 2998 32.4 µM | SNB-19 28.8 µM | MOLT-4 28.5 µM | HOP-18 22.8 µM | SK-MEL-28 18.5 µM | NCI-H23 40.6 µM | M19-MEL 19.1 µM | SK-OV-3 > 100 µM | DMS-273 18.8 µM | LXFL 529 18.3 µM | RPMI-8226 18 µM | SF-295 20.5 µM | NCI-H226 > 100 µM | CAKI-1 47.5 µM | SNB-78 20.3 µM | CCRF-CEM 17.3 µM | OVCAR-5 24.4 µM | HT-29 17.9 µM | NCI-H522 19.2 µM | SF-539 25.8 µM | SK-MEL-5 36.7 µM | HOP-62 > 100 µM | 786-0 18.7 µM
13.7 µM: HCT-15
